ChEMBL document CHEMBL1201862, “PubChem BioAssay data set” (2004)
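How tested: cells in 96-well plates exposed to compound for 48 hours at five concentrations. GI50 = concentration required for 50% inhibition of growth.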 Active and inactive are the calls of the source. No stated cut-off is given here; in the data, active = GI50 up to about 1.1 µM and inactive = higher.

Columns and labels:
Assay in all cases: NCI tumour cell line growth inhibition, 48 h
K562 = tested on: K562
MCF7 = tested on: MCF7
PC-3 = tested on: PC-3
CCRF-CEM = tested on: CCRF-CEM
A498 = tested on: A498
NCI-H226 = tested on: NCI-H226
SK-OV-3 = tested on: SK-OV-3
OVCAR-5 = tested on: OVCAR-5
786-0 = tested on: 786-0
HOP-62 = tested on: HOP-62
KM12 = tested on: KM12
CAKI-1 = tested on: CAKI-1
HT-29 = tested on: HT-29
SK-MEL-5 = tested on: SK-MEL-5
ACHN = tested on: ACHN
SK-MEL-2 = tested on: SK-MEL-2
NCI/ADR-RES = tested on: NCI/ADR-RES
UACC-62 = tested on: UACC-62
OVCAR-3 = tested on: OVCAR-3
SNB-75 = tested on: SNB-75
U-251 = tested on: U-251
MDA-MB-435 = tested on: MDA-MB-435
SK-MEL-28 = tested on: SK-MEL-28
SF-295 = tested on: SF-295
MDA-N = tested on: MDA-N
SF-268 = tested on: SF-268
NCI-H23 = tested on: NCI-H23
UO-31 = tested on: UO-31
OVCAR-8 = tested on: OVCAR-8
SNB-19 = tested on: SNB-19
NCI-H460 = tested on: NCI-H460
OVCAR-4 = tested on: OVCAR-4
IGROV-1 = tested on: IGROV-1
M14 = tested on: M14
HOP-92 = tested on: HOP-92
DU-145 = tested on: DU-145
SR = tested on: SR
COLO 205 = tested on: COLO 205
UACC-257 = tested on: UACC-257
EKVX = tested on: EKVX
MDA-MB-231 = tested on: MDA-MB-231
SN12C = tested on: SN12C
MOLT-4 = tested on: MOLT-4
T47D = tested on: T47D
TK-10 = tested on: TK-10
SW-620 = tested on: SW-620
HCT-15 = tested on: HCT-15
A549 = tested on: A549
Hs-578T = tested on: Hs-578T
HCT-116 = tested on: HCT-116
HL-60 = tested on: HL-60
RPMI-8226 = tested on: RPMI-8226
SF-539 = tested on: SF-539
LOX IMVI = tested on: LOX IMVI
HCC 2998 = tested on: HCC 2998
BT-549 = tested on: BT-549
RXF 393 = tested on: RXF 393
Malme-3M = tested on: Malme-3M
NCI-H522 = tested on: NCI-H522

## C=C[C@@H](OCOCC[Si](C)(C)C)[C@@H](CC)OC(CCCOC(=O)C(C)(C)C)OC (stereo not given in full)
K562
  GI50: 60.4 µM (inactive)
MCF7
  GI50: 21.8 µM (inactive)
PC-3
  GI50: 37.3 µM (inactive)
CCRF-CEM
  GI50: 27.9 µM (inactive)
A498
  GI50: 43.8 µM (inactive)
NCI-H226
  GI50: 21.9 µM (inactive)
SK-OV-3
  GI50: > 100 µM (inactive)
OVCAR-5
  GI50: 21.7 µM (inactive)
786-0
  GI50: 25 µM (inactive)
HOP-62
  GI50: 36.7 µM (inactive)
KM12
  GI50: 24 µM (inactive)
CAKI-1
  GI50: 53.7 µM (inactive)
HT-29
  GI50: 29.4 µM (inactive)
SK-MEL-5
  GI50: 31.3 µM (inactive)
ACHN
  GI50: 36.7 µM (inactive)
SK-MEL-2
  GI50: 21.4 µM (inactive)
NCI/ADR-RES
  GI50: 30.1 µM (inactive)
UACC-62
  GI50: 25.1 µM (inactive)
OVCAR-3
  GI50: 40.9 µM (inactive)
SNB-75
  GI50: 31 µM (inactive)
U-251
  GI50: 21 µM (inactive)
MDA-MB-435
  GI50: 38.5 µM (inactive)
SK-MEL-28
  GI50: 34.5 µM (inactive)
SF-295
  GI50: 22 µM (inactive)
MDA-N
  GI50: 45.1 µM (inactive)
SF-268
  GI50: 33.3 µM (inactive)
NCI-H23
  GI50: 28.3 µM (inactive)
UO-31
  GI50: 40 µM (inactive)
OVCAR-8
  GI50: 38.5 µM (inactive)
SNB-19
  GI50: 16.3 µM (inactive)
NCI-H460
  GI50: 54.2 µM (inactive)
OVCAR-4
  GI50: 26.4 µM (inactive)
IGROV-1
  GI50: 49 µM (inactive)
M14
  GI50: 36.4 µM (inactive)
HOP-92
  GI50: 81.1 µM (inactive)
DU-145
  GI50: 43.7 µM (inactive)
SR
  GI50: 41.6 µM (inactive)
COLO 205
  GI50: 29.9 µM (inactive)
UACC-257
  GI50: 34.6 µM (inactive)
EKVX
  GI50: 25.3 µM (inactive)
MDA-MB-231
  GI50: 66.1 µM (inactive)
SN12C
  GI50: 45.3 µM (inactive)
MOLT-4
  GI50: 91.2 µM (inactive)
T47D
  GI50: 19.4 µM (inactive)
TK-10
  GI50: 14.9 µM (inactive)
SW-620
  GI50: 26.1 µM (inactive)
HCT-15
  GI50: 22.1 µM
A549
  GI50: 31.5 µM (inactive)
Hs-578T
  GI50: 27.1 µM (inactive)
HCT-116
  GI50: 21 µM (inactive)
HL-60
  GI50: 18.4 µM (inactive)
RPMI-8226
  GI50: 41.7 µM (inactive)

## COc1cc(-c2nc(SC)nc3c2CCc2ccccc2-3)cc(OC)c1OC
K562
  GI50: 22.3 µM (inactive)
MCF7
  GI50: 50.1 µM (inactive)
PC-3
  GI50: 34.5 µM (inactive)
CCRF-CEM
  GI50: > 100 µM (inactive)
A498
  GI50: > 100 µM (inactive)
NCI-H226
  GI50: > 10 µM (inactive)
SK-OV-3
  GI50: > 100 µM (inactive)
OVCAR-5
  GI50: > 100 µM (inactive)
SF-539
  GI50: 83.4 µM (inactive)
786-0
  GI50: 50.6 µM (inactive)
HOP-62
  GI50: > 100 µM (inactive)
KM12
  GI50: 65.9 µM (inactive)
HT-29
  GI50: 50.1 µM (inactive)
SK-MEL-5
  GI50: 37 µM (inactive)
ACHN
  GI50: > 100 µM (inactive)
SK-MEL-2
  GI50: > 100 µM (inactive)
NCI/ADR-RES
  GI50: 36.3 µM (inactive)
LOX IMVI
  GI50: 91.8 µM (inactive)
UACC-62
  GI50: 82.4 µM (inactive)
HCC 2998
  GI50: > 100 µM (inactive)
OVCAR-3
  GI50: 95.1 µM (inactive)
SNB-75
  GI50: > 100 µM (inactive)
U-251
  GI50: 93.1 µM (inactive)
MDA-MB-435
  GI50: 95.1 µM (inactive)
SK-MEL-28
  GI50: > 100 µM (inactive)
SF-295
  GI50: 91 µM (inactive)
SF-268
  GI50: 91.2 µM (inactive)
NCI-H23
  GI50: > 100 µM (inactive)
UO-31
  GI50: 46.3 µM (inactive)
BT-549
  GI50: > 100 µM (inactive)
OVCAR-8
  GI50: 50.6 µM (inactive)
SNB-19
  GI50: > 100 µM (inactive)
OVCAR-4
  GI50: 65 µM (inactive)
IGROV-1
  GI50: 65.3 µM (inactive)
M14
  GI50: > 100 µM (inactive)
HOP-92
  GI50: > 100 µM (inactive)
DU-145
  GI50: 79.8 µM (inactive)
COLO 205
  GI50: 53.5 µM (inactive)
UACC-257
  GI50: 90.8 µM (inactive)
RXF 393
  GI50: 36 µM (inactive)
EKVX
  GI50: 29.1 µM (inactive)
MDA-MB-231
  GI50: 28.3 µM (inactive)
SN12C
  GI50: > 100 µM (inactive)
MOLT-4
  GI50: 30.5 µM (inactive)
T47D
  GI50: 26.8 µM (inactive)
SW-620
  GI50: > 100 µM (inactive)
A549
  GI50: > 100 µM (inactive)
Hs-578T
  GI50: > 100 µM (inactive)
HCT-116
  GI50: 47.8 µM (inactive)
HL-60
  GI50: > 100 µM (inactive)
RPMI-8226
  GI50: 25.8 µM (inactive)

## NC1CC2C3CCC2C1C3=O (stereo not given)
K562
  GI50: > 100 µM (inactive)
MCF7
  GI50: > 100 µM (inactive)
PC-3
  GI50: > 100 µM (inactive)
CCRF-CEM
  GI50: > 100 µM (inactive)
A498
  GI50: > 100 µM (inactive)
NCI-H226
  GI50: > 100 µM (inactive)
SK-OV-3
  GI50: > 100 µM (inactive)
OVCAR-5
  GI50: > 100 µM (inactive)
SF-539
  GI50: > 100 µM (inactive)
786-0
  GI50: > 100 µM (inactive)
Malme-3M
  GI50: > 100 µM (inactive)
HOP-62
  GI50: > 100 µM (inactive)
KM12
  GI50: > 100 µM (inactive)
CAKI-1
  GI50: > 100 µM (inactive)
HT-29
  GI50: > 100 µM (inactive)
SK-MEL-5
  GI50: > 100 µM (inactive)
ACHN
  GI50: > 100 µM (inactive)
SK-MEL-2
  GI50: > 100 µM (inactive)
NCI/ADR-RES
  GI50: > 100 µM (inactive)
LOX IMVI
  GI50: > 100 µM (inactive)
UACC-62
  GI50: > 100 µM (inactive)
HCC 2998
  GI50: > 100 µM (inactive)
OVCAR-3
  GI50: > 100 µM (inactive)
SNB-75
  GI50: 4.76 µM (inactive)
U-251
  GI50: > 100 µM (inactive)
MDA-MB-435
  GI50: > 100 µM (inactive)
SK-MEL-28
  GI50: > 100 µM (inactive)
SF-295
  GI50: > 100 µM (inactive)
MDA-N
  GI50: > 100 µM (inactive)
SF-268
  GI50: > 100 µM (inactive)
NCI-H23
  GI50: > 100 µM (inactive)
UO-31
  GI50: > 100 µM (inactive)
OVCAR-8
  GI50: > 100 µM (inactive)
SNB-19
  GI50: > 100 µM (inactive)
NCI-H460
  GI50: > 100 µM (inactive)
OVCAR-4
  GI50: > 100 µM (inactive)
IGROV-1
  GI50: > 100 µM (inactive)
M14
  GI50: > 100 µM (inactive)
HOP-92
  GI50: > 100 µM (inactive)
DU-145
  GI50: > 100 µM (inactive)
SR
  GI50: > 100 µM (inactive)
COLO 205
  GI50: > 100 µM (inactive)
UACC-257
  GI50: > 100 µM (inactive)
RXF 393
  GI50: > 100 µM (inactive)
EKVX
  GI50: > 100 µM (inactive)
MDA-MB-231
  GI50: > 100 µM (inactive)
SN12C
  GI50: > 100 µM (inactive)
MOLT-4
  GI50: > 100 µM (inactive)
NCI-H522
  GI50: > 100 µM (inactive)
T47D
  GI50: > 100 µM (inactive)
TK-10
  GI50: > 100 µM (inactive)
SW-620
  GI50: > 100 µM (inactive)
HCT-15
  GI50: > 100 µM
A549
  GI50: > 100 µM (inactive)
Hs-578T
  GI50: > 100 µM (inactive)
HCT-116
  GI50: > 100 µM (inactive)
HL-60
  GI50: > 100 µM (inactive)
